Data reported in US20260176270A1 (Exelixis, Inc., priority 2022, published 2026).
Read-outs that look alike come from different tables or passages of the source.

Experiments:
[1] = tested on: phosphorylation of CDK1 at Thr14 in HCC1806 cells; test: Cell lysate AlphaLISA assay measuring inhibition of phosphorylation of CDK1 Thr14; type: cell-based; conditions: read-out: Cellular IC50
Procedure: (§1) Biochemical IC50 values were determined via ADP-Glo™ assay. Cellular IC50 values were determined via AlphaLISA assay.
Cell lysate AlphaLISA® assay measuring inhibition of phosphorylation of CDK1 Thr14. Inhibition of phosphorylation of CDK1 at Thr14 was determined using AlphaLISA® SureFire® Ultra™ Kit from Perkin Elmer (ALSU-PCDK1-A10K). HCC1806 cells were seeded at 2K cells per well (50 μl/well) in 384-well plates (Corning 3570) and stored overnight at 37° C. and 5% CO2. The following day, the compounds dissolved in DMSO were introduced to the cells and incubated for 4 hours at 37° C. and 5% CO2. The cells were then washed with PBS using Blue®Washer and 10 μl of lysis buffer containing protease inhibitor was added. The plate was placed on an orbital shaker (at 4° C.) for 30 minutes and stored overnight at −80° C. for complete lysing. The next day, the plates were thawed at room temperature for at least 30 min. Reagents were prepared in a dimmed light setting (<100 lumens). The assay was run by first adding 5 μl of the acceptor mix (reaction buffer 1: reaction buffer 2: activation buffer: acceptor beads 47:47:4:2), covering the plate with foil, shaking for 2 minutes and incubating at RT for 60 minutes. The donor mix (dilution buffer: donor beads 47:3) was then added at 5 μl per well, placed on the shaker for 2 minutes and incubated at RT for 60 minutes before reading the plates on a PHERAstar® plate reader. The results were normalized to DMSO (0% Inhibition) and 3 μM of reference compound.

[2] = molecular target: T1, PKMYT1 (Homo sapiens, UniProt Q99640); test: ADP-Glo PKMYT1 ATP-depletion assay; conditions: 50 nM PKMYT1, 13.3 nM CDK1, read-out: Biochemical IC50
T1 construct: PKMYT1 (93 kD, full length, N-terminal GST tag from Signal Chem); GST (N); purchased Signal Chem
T1 sequence (Q99640 1-499): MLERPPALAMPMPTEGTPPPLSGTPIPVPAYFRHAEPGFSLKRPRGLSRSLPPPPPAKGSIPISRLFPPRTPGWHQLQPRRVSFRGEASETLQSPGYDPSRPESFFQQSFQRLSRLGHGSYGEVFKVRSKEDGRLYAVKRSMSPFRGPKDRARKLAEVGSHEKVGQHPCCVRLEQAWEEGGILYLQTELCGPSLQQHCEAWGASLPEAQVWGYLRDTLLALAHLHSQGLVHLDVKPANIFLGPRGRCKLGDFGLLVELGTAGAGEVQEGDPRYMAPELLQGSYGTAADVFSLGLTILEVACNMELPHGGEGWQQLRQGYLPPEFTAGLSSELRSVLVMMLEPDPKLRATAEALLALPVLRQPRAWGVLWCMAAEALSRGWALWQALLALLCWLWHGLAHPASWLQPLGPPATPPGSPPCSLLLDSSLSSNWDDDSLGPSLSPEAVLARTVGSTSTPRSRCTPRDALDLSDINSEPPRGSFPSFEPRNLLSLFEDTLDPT
Procedure: as §1
ADP-Glo™ PKMYT1 ATP-depletion assay. The activity of PKMYT1 is measured using a luciferase-luciferin based ATP detection reaction to quantify ATP depletion resulting from kinase-catalyzed phosphoryl transfer to CDK1 or autophosphorylation of PKMYT1. The ADP generated as a byproduct of the reaction is converted to ATP and used to drive a luciferase reaction. Test compounds were dissolved in DMSO and dispensed into Corning 3824 384-well plates prior to the experiment such that the final DMSO concentration was <1%. To the compounds was added 3 μL of PKMYT1 (93 kD, full length, N-terminal GST tag from Signal Chem). The reaction was started by the addition of 2 μL of CDK1 (58 kDa, full length, N-terminal GST tag from Signal Chem) and ATP in assay buffer (50 mM Hepes, 40 mM NaCl, 10 mM MgCl2, 1 mM DTT, 0.1 mg/mL BSA, 2.5 mM MnCl2). Final assay concentrations were 50 nM PKMYT1, 13.3 nM CDK1, and 88 µM ATP. Plates were centrifuged for 1 minute at 1000 RPM and incubated at RT for 120 minutes. After the incubation period, ADP-Glo™ reagent was added and the plates were incubated for another 40 minutes before finally adding the kinase detection reagent. 30 minutes after the addition, plates were placed on a PHERAstar® plate reader and read using the Luminescence Protocol, integration time at 0.5 seconds.

Compound | IC50 ([1]; 4 hours) [µM] | IC50 [2] [µM] | IC50 ([1]; Homo sapiens, HCC1806, 4 h) [µM]
NC(=O)c1cc2nccnc2c(-c2c(Cl)ccc3[nH]ncc23)c1N [Compound 142] | 1 to 5 | 0.05 to 0.5 | –
Cc1cnc2c(-c3c(C)ccc(O)c3C)c(N)c(C(N)=O)cc2c1 (atropisomer, axis not shown) [Compound 213] | – | < 0.05 | 0.05 to 0.5
Cc1ccc2[nH]ncc2c1-c1cc(C(N)=O)nc2ccccc12 [Compound 15, 4-(5-Methyl-1H-indazol-4-yl)quinoline-2-carboxamide] | – | ≥ 5 | ≥ 5
Cc1c(O)cccc1-c1c(N)c(C(N)=O)cc2cc(Cl)cnc12 (atropisomer, axis not shown) [Compound 179] | 0.05 to 0.5 | < 0.05 | –
Cc1c(O)cccc1-c1c(N)c(C(N)=O)cc2ncc(C(F)(F)F)nc12 (single isomer, unassigned) [Compound 125, (M)-7-Amino-8-(3-hydroxy-2-methylphenyl)-2-(trifluoromethyl)-quinoxaline-6-carboxamide] | ≥ 5 | 1 to 5 | –
Cc1ccc(O)c(C)c1-c1cc(C(N)=O)cc2nccnc12 [Compound 74, 8-(3-Hydroxy-2,6-dimethyl-phenyl)quinoxaline-6-carboxamide] | – | 0.5 to 1 | ≥ 5
Cc1ccc2[nH]ncc2c1-c1c(N)c(C(N)=O)nc2cccnc12 (single isomer, unassigned) [Compound 8, (M)-3-amino-4-(5-methyl-1H-indazol-4-yl)-1,5-naphthyridine-2-carboxamide] | ≥ 5 | ≥ 5 | –
Cc1c(O)cccc1-c1c(N)c(C(N)=O)cc2nc(C(F)(F)F)cnc12 [Compound 96, 7-Amino-8-(3-hydroxy-2-methylphenyl)-3-(trifluoromethyl)quinoxaline-6-carboxamide] | 1 to 5 | 0.05 to 0.5 | –
Cc1ccc(O)c(C)c1-c1c(N)c(C(N)=O)cc2cc(Cl)cnc12 (atropisomer, axis not shown) [Compound 235] | ≥ 5 | 1 to 5 | –
COc1cncc(-c2c(N)c(C(N)=O)cc3nccnc23)c1C [Compound 107, 7-amino-8-(5-methoxy-4-methylpyridin-3-yl)quinoxaline-6-carboxamide] | – | 0.05 to 0.5 | ≥ 5
Cc1cnc2[nH]ncc2c1-c1c(N)c(C(N)=O)cc2nccnc12 [Compound 234] | – | ≥ 5 | ≥ 5
NC(=O)c1nc2cccnc2c(-c2cncnc2C(F)(F)F)c1N [Compound 253] | – | 1 to 5 | ≥ 5
COc1ccc2nc(C(N)=O)c(N)c(-c3cccc(O)c3C)c2n1 (atropisomer, axis not shown) [Compound 175] | ≥ 5 | ≥ 5 | –
NC(=O)c1cc2nccnc2c(-c2cccn3cncc23)c1N [Compound 216] | – | 1 to 5 | ≥ 5
Cc1c(O)cccc1-c1c(N)c(C(N)=O)nc2cc(C(F)(F)F)ccc12 (atropisomer, axis not shown) [Compound 148] | ≥ 5 | ≥ 5 | –
Cc1ccc(O)c(C)c1-c1c(N)c(C(N)=O)nc2ccc(F)cc12 (atropisomer, axis not shown; (M)) [Compound 23, (M)-3-Amino-6-fluoro-4-(3-hydroxy-2,6-dimethylphenyl) quinoline-2-carboxamide] | 1 to 5 | 0.05 to 0.5 | –
Cc1ccc(O)c(C)c1-c1cc(C(N)=O)nc2ccccc12 [Compound 12, 4-(3-Hydroxy-2,6-dimethylphenyl)quinoline-2-carboxamide] | – | 1 to 5 | 0.05 to 0.5
Cc1cc(O)cc(C)c1-c1cc(C(N)=O)nc2ccccc12 [Compound 130] | – | ≥ 5 | ≥ 5
Cc1ccc(O)c(C)c1-c1c(N)c(C(N)=O)nc2cc(Cl)ccc12 [Compound 42, 3-Amino-7-chloro-4-(3-hydroxy-2,6-dimethylphenyl)quinoline-2-carboxamide] | – | 0.5 to 1 | 1 to 5
Cc1c(F)cncc1C1=c2ncccc2=NC(C(N)=O)C1N (stereo not shown) [Compound 226] | 0.5 to 1 | < 0.05 | –
